Test results: patent US12534436B2, “Disubstituted adamantyl derivative or pharmaceutically acceptable salt thereof, and pharmaceutical composition for suppressing cancer growth comprising same as active ingredient” (ONECUREGEN CO., LTD., priority 2020, dated 2026)

tested on: HIF-1 (HRE-dependent luciferase reporter); assay: HRE-luciferase assay, screening of HIF-1 inhibitors in HCT116 cells; type: cell-based, human; settings: HCT116 cells stably expressing HRE-dependent luciferase reporter, hypoxic conditions, 12 hours; means of three experiments
Method: HCT116 cells stably expressing the HRE-dependent luciferase reporter were treated with the disubstituted adamantyl derivative prepared in the above example under hypoxic conditions for 12 hours before measuring luciferase activity.
In HCT116 cells treated with disubstituted adamantyl derivatives, luciferase activity was investigated using HRE-luciferase assay. The HRE-luciferase reporter assay was performed as previously described using the luciferase assay system (Promega, Madison, WI, USA) according to the manufacturer's instructions (Naik, R. et al. Synthesis and Structure-Activity Relationship of (E)Phenoxyacrylic Amide Derivatives as Hypoxia-Inducible Factor (HIF) 1α Inhibitors. J. Med. Chem. 55, 10564-1057 (2012)). Luciferase activity was measured using a Victor X light luminescence reader (PerkinElmer, Boston, MA, USA).

With `CN1CCN(C(=O)COc2ccc(C34CC5CC(CC(C(=O)NCc6ccco6)(C5)C3)C4)cc2)CC1` [Compound 17a, N-(Furan-2-ylmethyl)-5-(4-(2-(4-methylpiperazin-1-yl)-2-oxoethoxy)phenyl) adamantan-1-yl-carboxamide] as the molecule, how does the IC50 read?
The IC50 was over 20 µM.

`COc1ccc(COC(=O)C23CC4CC(CC(C4)C2c2ccc(OCC(=O)NCc4ccco4)cc2)C3)cc1OC` (stereo not shown) [Compound 14c, 3,4-Dimethoxybenzyl-2-(4-(2-(furan-2-ylmethylamino)-2-oxoethoxy)phenyl) adamantane-1-ylcarboxylate] was tested. Which IC50 did it give?
The IC50 was 22.5 µM.

Which IC50 does the source give for `COc1ccc(COC(=O)C23CC4CC(CC(C4)C2c2ccc(OCC(=O)Nc4cccc(C(F)(F)F)c4)cc2)C3)cc1OC` (stereo not shown) [Compound 14a, 3,4-Dimethoxybenzyl-2-(4-(2-oxo-2-(3-(trifluoromethyl)phenylamino)ethoxy)phenyl) adamantane-1-ylcarboxylae] here?
Its IC50 is over 20 µM.

With `CN1CCN(C(=O)COc2ccc(C34CC5CC(CC(C(=O)N6CCN(Cc7ccc(C(F)(F)F)cc7)CC6)(C5)C3)C4)cc2)CC1` [Compound 17b, 1-(4-Methylpiperazin-1-yl)-2-(4-(5-(4-(4-(trifluoromethyl)benzyl)piperazine-1-carbonyl)adamantan-1-yl-)phenoxy) ethanone] as the molecule, how does the IC50 read?
Its IC50 is 2.19 µM.

How did the IC50 turn out when `COc1ccc(COC(=O)C23CC4CC(CC(C4)C2c2ccc(OCC(=O)Nc4cccc5cccnc45)cc2)C3)cc1OC` (stereo not shown) [Compound 14b, 3,4-Dimethoxybenzyl-2-(4-(2-oxo-2-(quinolin-8-ylamino)ethoxy)phenyl) adamantane-1-ylcarboxylate] was run?
Its IC50 is over 20 µM.

With `COc1ccc(COC(=O)C23CC4CC(CC(C4)C2c2ccc(OCC(=O)N4CCN(C)CC4)cc2)C3)cc1OC` (stereo not shown) [Compound 14d, 3,4-Dimethoxybenzyl-2-(4-(2-(4-methylpiperazin-1-yl)-2-oxoethoxy)phenyl) adamantane-1-ylcarboxylate] as the molecule, how does the IC50 read?
The IC50 was 1.67 µM.

same assay, conditions: Homo sapiens, HCT-116; HCT116 cells stably expressing HRE-dependent luciferase reporter, hypoxic conditions, 12 hours; means of three experiments

For `COc1ccc(CN2CCN(C(=O)C34CC5CC(C3)CC(c3ccc(OCC(=O)N6CCN(C)CC6)cc3)(C5)C4)CC2)cc1` [Compound 17c, 2-(4-(5-(4-(4-Methoxybenzyl)piperazine-1-carbonyl)adamantan-1-yl)phenoxy)-1-(4-methylpiperazin-1-yl) ethanone], which IC50 is on record?
The IC50 was 9.53 µM.

With `CNC(=O)C12CC3CC(C1)CC(c1ccc(OCC(=O)Nc4cccc(C(=O)OC)c4)cc1)(C3)C2` [Compound 10f, Methyl-3-(2-(4-(3-methylcarbamoyl-adamantan-1-yl)phenoxy)acetamido)benzoate] as the molecule, how does the IC50 read?
Its IC50 is 16.6 µM.

For `COC(=O)c1cccc(NC(=O)COc2ccc(C34CC5CC(CC(C(=O)OC)(C5)C3)C4)cc2)c1` [Compound 10a, Methyl-3-(2-(4-(3-((methoxy)carbonyl)adamantane-1-yl)phenoxy)acetamido)benzoate], which IC50 is on record?
Its IC50 is 18.3 µM.

`COC(=O)c1cccc(NC(=O)COc2ccc(C34CC5CC(CC(C(=O)NCc6ccco6)(C5)C3)C4)cc2)c1` [Compound 10h, Methyl-3-(2-(4-(3-(furan-2-ylmethylcarbamoyl)-adamantan-1-yl)phenoxy)acetamido)benzoate] was tested. Which IC50 did it give?
The IC50 was 3 µM.

With `COC(=O)c1cccc(NC(=O)COc2ccc(C34CC5CC(CC(C(=O)N6CCc7cc(OC)c(OC)cc7C6)(C5)C3)C4)cc2)c1` [Compound 10j, Methyl-3-(2-(4-(3-(6,7-dimethoxy-1,2,3,4-tetrahydroisoquinoline-2-carbonyl)-adamantan-1-yl)phenoxy)acetamido)benzoate] as the molecule, how does the IC50 read?
The IC50 was 1.3 µM.

`COC(=O)c1cccc(NC(=O)COc2ccc(C34CC5CC(CC(C(=O)NCc6ccccc6)(C5)C3)C4)cc2)c1` [Compound 10g, Methyl-3-(2-(4-(3-benzylcarbamoyl-adamantan-1-yl)phenoxy)acetamido)benzoate] was tested. Which IC50 did it give?
The IC50 was 1.3 µM.

With `COc1cc2c(cc1OC)CN(C(=O)C13CC4CC(C1)CC(c1ccc(OCC(=O)N5CCN(C)CC5)cc1)(C4)C3)CC2` [Compound 21b, 2-(4-(3-(6,7-Dimethoxy-1,2,3,4-tetrahydroisoquinoline-2-carbonyl)adamantan-1-yl)phenoxy)-1-(4-methylpiperazin-1-yl) ethanone] as the molecule, how does the IC50 read?
The IC50 was 9.51 µM.

Which IC50 does the source give for `COC(=O)c1cccc(NC(=O)COc2ccc(C34CC5CC(CC(C(=O)OCc6ccco6)(C5)C3)C4)cc2)c1` [Compound 10e, Methyl-3-(2-(4-(3-((furan-2-ylmethoxy)carbonyl)adamantane-1-yl)phenoxy)acetamido)benzoate] here?
Its IC50 is 6.4 µM.

How did the IC50 turn out when `COC(=O)c1cccc(NC(=O)COc2ccc(C34CC5CC(C3)C(C(=O)OCc3ccc(OC)cc3)C(C5)C4)cc2)c1` (stereo not shown) [Compound 10b, Methyl-3-(2-(4-(4-((4-methoxybenzyloxy)carbonyl)adamantane-1-yl)phenoxy)acetamido)benzoate] was run?
Its IC50 is over 20 µM.

Which IC50 does the source give for `COC(=O)c1cccc(NC(=O)COc2ccc(C34CC5CC(CC(C5)C3C(=O)OCCc3ccc(OC)c(OC)c3)C4)cc2)c1` (stereo not shown) [Compound 10d, Methyl-3-(2-(4-(2-((3,4-dimethoxyphenethoxy)carbonyl)adamantane-1-yl)phenoxy)acetamido)benzoate] here?
Its IC50 is over 20 µM.

Which IC50 does the source give for `COC(=O)c1cccc(NC(=O)COc2ccc(C34CC5CC(CC(C(=O)Nc6ccccn6)(C5)C3)C4)cc2)c1` [Compound 10i, Methyl-3-(2-(4-(3-(pyridin-2-ylcarbamoyl)-adamantan-1-yl)phenoxy)acetamido)benzoate] here?
The IC50 was 2.4 µM.

With `COC(=O)c1cccc(NC(=O)COc2ccc(C34CC5CC(C3)C(C(=O)OCc3ccc(OC)c(OC)c3)C(C5)C4)cc2)c1` (stereo not shown) [Compound 10c, Methyl-3-(2-(4-(4-((3,4-dimethoxybenzyloxy)carbonyl)adamantane-1-yl)phenoxy)acetamido)benzoate] as the molecule, how does the IC50 read?
Its IC50 is 2.37 µM.

With `COc1cc2c(cc1OC)CN(C(=O)C13CC4CC(C1)CC(c1ccc(OCC(=O)N5CCOCC5)cc1)(C4)C3)CC2` [Compound 21a, 2-(4-(3-(6,7-Dimethoxy-1,2,3,4-tetrahydroisoquinoline-2-carbonyl)adamantan-1-yl)phenoxy)-1-morpholinoethanone] as the molecule, how does the IC50 read?
The IC50 was 5.43 µM.
